Measurements from US7566727B2, “2-(1-aza-bicyclo[2.2.2]oct-3-yl)-2,3-dihydro-isoindole-1-one/5,6-dihydro-furo[2,3-c] pyrrol-4-one derivative ligands for alpha 7 nicotinic acetylcholine receptor” (priority 2004, dated 2009).

The compounds below were run against α7 nAChR subtype (Rattus norvegicus, UniProt Q05941) (assay: Test A: 125I-α-Bungarotoxin binding to rat hippocampal membranes (affinity at α7 nAChR subtype)). Conditions: [125I]α-BTX displacement, rat hippocampal membranes.
Procedure: Test A—Assay for Affinity at α7 nAChR subtype
125I-α-Bungarotoxin (BTX) binding to rat hippocampal membranes. Rat hippocampi were homogenized in 20 volumes of cold homogenization buffer (HB: concentrations of constituents (mM): tris(hydroxymethyl)aminomethane 50; MgCl2 1; NaCl 120; KCl 5: pH 7.4). The homogenate was centrifuged for 5 minutes at 1000 g, the supernatant was saved and the pellet re-extracted. The pooled supernatants were centrifuged for 20 minutes at 12,000 g, washed, and re-suspended in HB. Membranes (30-80 μg) were incubated with 5 nM [^125I] α-BTX, 1 mg/mL BSA (bovine serum albumin), test drug, and either 2 mM CaCl2 or 0.5 mM EGTA [ethylene glycol-bis(β-aminoethylether)] for 2 hours at 21° C., and then filtered and washed 4 times over Whatman glass fibre filters (thickness C) using a Brandel cell harvester.
Binding data analysis for Tests A and B
IC50 values and pseudo Hill coefficients (nH) were calculated using the non-linear curve fitting program ALLFIT (DeLean A, Munson P J and Rodbard D (1977) Am. J. Physiol., 235:E97-E102). […] Ki values were determined using 6 or more drug concentrations.

α7 nAChR subtype, sequence (Q05941 23-502): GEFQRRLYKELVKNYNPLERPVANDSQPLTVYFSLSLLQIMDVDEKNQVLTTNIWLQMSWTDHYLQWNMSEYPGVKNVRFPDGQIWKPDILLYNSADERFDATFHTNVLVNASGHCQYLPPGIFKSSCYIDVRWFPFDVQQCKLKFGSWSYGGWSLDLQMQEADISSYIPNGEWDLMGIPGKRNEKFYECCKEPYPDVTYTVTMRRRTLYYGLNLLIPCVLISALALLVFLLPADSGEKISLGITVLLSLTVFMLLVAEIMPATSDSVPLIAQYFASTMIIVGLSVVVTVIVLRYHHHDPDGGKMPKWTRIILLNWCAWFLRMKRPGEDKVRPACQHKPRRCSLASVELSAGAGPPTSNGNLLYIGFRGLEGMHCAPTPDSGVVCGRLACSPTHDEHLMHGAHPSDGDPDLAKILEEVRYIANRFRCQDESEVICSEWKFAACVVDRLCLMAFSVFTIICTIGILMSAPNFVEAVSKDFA

| SMILES | Ki |
| --- | --- |
| CC(=O)Nc1ccccc1-c1ccc2c(c1)C(=O)N([C@H]1CN3CCC1CC3)C2 [Example 65, N-[2-((R)-2-1-Aza-bicyclo[2.2.2]oct-3-yl-3-oxo-2,3-dihydro-1H-isoindol-5-yl)-phenyl]-acetamide] | 1150 nM |
| CCN(CC)C(=O)c1cccc(-c2ccc3c(c2)C(=O)N([C@H]2CN4CCC2CC4)C3)c1 [Example 66, 3-((R)-2-1-Aza-bicyclo[2.2.2]oct-3-yl-3-oxo-2,3-dihydro-1H-isoindol-5-yl)-N,N-diethyl-benzamide] | 20 nM |
| O=C1c2cc(-c3cccc(OCc4ccccc4)c3)ccc2CN1[C@H]1CN2CCC1CC2 [Example 67, 2-(R)-1-Aza-bicyclo[2.2.2]oct-3-yl-6-(3-benzyloxy-phenyl)-2,3-dihydro-isoindol-1-one] | 51 nM |
| O=C(c1cccc(-c2ccc3c(c2)C(=O)N([C@H]2CN4CCC2CC4)C3)c1)N1CCOCC1 [Example 68, 2-(R)-1-Aza-bicyclo[2.2.2]oct-3-yl-6-[3-(morpholine-4-carbonyl)-phenyl]-2,3-dihydro-isoindol-1-one] | 44 nM |
| O=C(c1cccc(-c2ccc3c(c2)C(=O)N([C@H]2CN4CCC2CC4)C3)c1)N1CCCCC1 [Example 69, 2-(R)-1-Aza-bicyclo[2.2.2]oct-3-yl-6-[3-(piperidine-1-carbonyl)-phenyl]-2,3-dihydro-isoindol-1-one] | 23 nM |
| O=C(c1cccc(-c2ccc3c(c2)C(=O)N([C@H]2CN4CCC2CC4)C3)c1)N1CCCC1 [Example 70, 2-(R)-1-Aza-bicyclo[2.2.2]oct-3-yl-6-[3-(pyrrolidine-1-carbonyl)-phenyl]-2,3-dihydro-isoindol-1-one] | 14 nM |
| CN(C)c1cccc(-c2ccc3c(c2)C(=O)N([C@H]2CN4CCC2CC4)C3)c1 [Example 71, 2-(R)-1-Aza-bicyclo[2.2.2]oct-3-yl-6-(3-dimethylamino-phenyl)-2,3-dihydro-isoindol-1-one] | 4.2 nM |
| CSc1cccc(-c2ccc3c(c2)C(=O)N([C@H]2CN4CCC2CC4)C3)c1 [Example 72, 2-(R)-1-Aza-bicyclo[2.2.2]oct-3-yl-6-(3-methylsulfanyl-phenyl)-2,3-dihydro-isoindol-1-one] | 37 nM |
